According to patent US8207357B2, “Rotaxane compound and antitumor agent” (Wan Station Co., Ltd., priority 2008, dated 2012):

Key:
[1] = tested on: mouse colon tumor cell-derived cell line Colon-26; assay: Antitumor activity, viable cell count (Tetra Color ONE, absorbance 450 nm) in Colon-26; format: cell-based; conditions: Colon-26, 1.25 μM, compared with Control, FIG. 1
Description: (§1) As tumor cells, mouse colon tumor cell-derived cell line Colon-26, human glioblastoma-derived cell line T98G, and human malignant melanoma-derived cell line G361 were used. The tumor cells of each cell line were cultured in RPMI 1640 containing 10% FBS and 0.5% penicillin-streptomycin, as the base medium, in the presence of 5% CO2, at 37° C., under humidity conditions. The tumor cells (5.0×10^4) of each cell line having been cultured to a sufficiently confluent state were seeded in a 1.5 mL tube together with the medium. Each of the rotaxane compounds was dissolved in DMSO as a vehicle (solvent) and was added to the tube in a predetermined concentration so that the total amount is 1000 μL. Then, 100 μL of this was dispensed to each well of a 96-well microplate and was incubated in a CO2 incubator for 24 hours. Subsequently, 10 μL of a viable-cell-counting reagent (Tetra Color ONE, a product of Seikagaku Corporation) was added to each well of the 96-well microplate, and a reaction was performed in the CO2 incubator for 2 hours. The ultraviolet absorbance at 450 nm (control wavelength: 620 nm) was measured […] the reaction with a microplate reader. Note that the higher absorbance means the lager number of viable cells.
The antitumor activities of TRO-A0014 and TRO-A0015 were verified using Colon-26 as tumor cells as in the method of (5-1) described above. […]

[2] = tested on: human malignant melanoma-derived cell line G361; assay: Antitumor activity, viable cell count (Tetra Color ONE, absorbance 450 nm) in G361; format: cell-based; conditions: G361, at every rotaxane concentrations, FIG. 2
Description: as §1
The antitumor activity of TRO-A0010 was verified using T98G and G361 as tumor cells as in the above (5-1).

Substance: [2][(3,5-dimethylphenylcarboxyethyl)(3,5-dimethylphenylcarboxypropyl) ammonium-rotaxa-[2,5,8,11,13,16,19,22-octaoxa-1,12(1,2)-dibenzenacyclodocosaphane]] trifluoromethanesulfonate [TRO-A0014]
- cell growth-inhibiting effect at a concentration of 1.25 μM [1]: obviously observed

Substance: [2][bis(3,5-dimethylphenylcarboxypentyl)ammonium-rotaxa-[2,5,8,11,13,16,19,22-octaoxa-1,12(1,2)-dibenzenacyclodocosaphane]]trifluoromethanesulfonate [TRO-A0010]
- cell growth-inhibiting effect compared with TRO-A0001 [2]: higher than that of TRO-A0001
